Measurements from patent publication US4760081A, “1,6-naphthyridine derivatives useful for treating diseases of the blood vessels” (Goedecke Aktiengesellschaft, priority 1984, dated 1988).
Structures can show the parent of a compound that is named as a salt. Where two headings read alike, the source gives them in different places.

Experiments:
arteria coronaria = assay: Isolated smooth muscle: inhibition of K+ depolarization contraction of blood vessel rings in an organ bath, A. coronaria; format: cell-based; details: rabbit, average diameter 0.5-1.0 mm, read-out: IC50, semi-maximum inhibition of the K+ depolarization contraction of blood vessel rings, A. cor.
Excerpt: (§1) Isolated smooth muscle from rabbits (blood vessel rings, A. basilaris, A. coronaria, A. saphena) are fixed in an organ bath in such a manner that isometric contractions can be measured. The contraction is initiated by a potassium depolarization in tyrode solution.

arteria saphena = assay: Isolated smooth muscle: inhibition of K+ depolarization contraction of blood vessel rings in an organ bath, A. saphena; format: cell-based; details: rabbit, average diameter 0.5-1.0 mm, read-out: IC50, semi-maximum inhibition of the K+ depolarization contraction of blood vessel rings, A. saph.
Excerpt: as §1

[1] = test system: isolated papillary muscle of the guinea pig; assay: Isolated papillary muscle: isometric contraction under field stimulation; format: cell-based; details: for IC50: read-out: IC50 /100 (IC = inhibition concentration, IC100 corresponds to maximum action) (converted)
Excerpt: However, it cannot be excluded that the dimethyl sulfoxide used as a solvent has contributed to the observed positive inotropic action.

arteria basilaris = assay: Isolated smooth muscle: inhibition of K+ depolarization contraction of blood vessel rings in an organ bath, A. basilaris; format: cell-based; details: rabbit, average diameter 0.5-1.0 mm, read-out: IC50, semi-maximum inhibition of the K+ depolarization contraction of blood vessel rings, A. bas.
Excerpt: as §1

[2] = test system: papillary muscle of the rabbit; details: Hof and Scholtysik, cited from earlier work
[3] = Cavia porcellus, papillary muscle of guinea pig, 250/min, 10 msec, 10-20 V field stimulation

| Compound | IC50 (arteria coronaria; Oryctolagus cuniculus) [nM] | IC50 (arteria saphena; Oryctolagus cuniculus) [nM] | IC50 [1, 3] [nM] | IC50 (arteria basilaris; Oryctolagus cuniculus) [nM] | other results |
| --- | --- | --- | --- | --- | --- |
| COC(=O)C1=C(C)Nc2ccnc(OC(C)C)c2C1c1ccccc1F (racemic) [Example 1, Methyl (±)-4-(2-fluorophenyl)-1,4-dihydro-5-isopropoxy-2-methyl-1,6-naphthyridine-3-carboxylate] | 30 | 7 | 300000 | 5 | – |
| COC(=O)C1=C(C)Nc2ccnc(OC(C)C)c2C1c1ccccc1[N+](=O)[O-] (racemic) [Example 1b, methyl (±)-1,4-dihydro-5-isopropoxy-2-methyl-4-(2-nitrophenyl)-1,6-naphthyridine-3-carboxylate] | 0.75 | 3.4 | – | 0.66 | – |
| COC(=O)C1=C(C)Nc2ccnc(OC(C)C)c2C1c1ccccc1 (racemic) [Example 1c, methyl (±)-1,4-dihydro-5-isopropoxy-2-methyl-4-phenyl-1,6-naphthyridine-3-carboxylate] | 65 | 1000 | – | 15 | activation at 0.3 µM ([1]; Cavia porcellus, 3×10^-7 mol/liter, read-out: maximum increase of the contractility): 36%; activation at 0.004 µM ([1]; Cavia porcellus, 4×10^-9 mol/liter, read-out: increase of the contractility): 18% |
| COC(=O)C1=C(C)Nc2ccnc(OC(C)C)c2C1c1c(F)cccc1Cl (racemic) [Example 1g, methyl (±)-4-(2-chloro-6-fluorophenyl)-1,4-dihydro-5-isopropoxy-2-methyl-1,6-naphthyridine-3-carboxylate] | 3.2 | – | – | 5.9 | – |
| CCCOc1nccc2c1C(c1ccccc1C(F)(F)F)C(C(=O)OC)=C(C)N2 (racemic) [Example 1h, methyl (±)-1,4-dihydro-2-methyl-5-propoxy-4-(2-trifluoromethylphenyl)-1,6-naphthyridine-3-carboxylate] | 15 | 1000 | – | 3000 | – |
| CCOC(=O)C1=C(C)Nc2ccnc(OC(C)C)c2C1c1ccccc1C(F)(F)F (racemic) [Example 1l, ethyl (±)-1,4-dihydro-5-isopropoxy-2-methyl-4-(2-trifluoromethylphenyl)-1,6-naphthyridine-3-carboxylate] | 31 | 390 | 120000 | 7.4 | – |
| CCOC(=O)C1=C(C)Nc2ccnc(OC(C)CC)c2C1c1ccccc1C(F)(F)F (racemic) [Example 1p, ethyl (±)-5-sec-butoxy-1,4-dihydro-2-methyl-4-(2-trifluoromethylphenyl)-1,6-napthyridine-3-carboxylate hydrochloride] | 53 | – | 10000 | 16 | – |
| CCOC(=O)C1=C(C)Nc2ccnc(OCC(C)C)c2C1c1ccccc1C(F)(F)F (racemic) [Example 1q, ethyl (±)-1,4-dihydro-5-isobutoxy-2-methyl-4-(2-trifluoromethylphenyl)-1,6-naphthyridine-3-carboxylate] | 190 | – | 10000 | 35 | – |
| COC(=O)C1=C(C)Nc2ccnc(OC)c2C1c1ccccc1 (racemic) [Example 2, Methyl (±)-1,4-dihydro-5-methoxy-2-methyl-4-phenyl-1,6-naphthyridine-3-carboxylate] | 1000 | 90 | – | 250 | – |
| CCOC(=O)C1=C(C)Nc2ccnc(OC)c2C1c1ccccc1Cl (racemic) [Example 2a, ethyl (±)-4-(2-chlorophenyl)-1,4-dihydro-5-methoxy-2-methyl-1,6-naphthyridine-3-carboxylate] | 10 | 600 | – | 6 | – |
| CCOC(=O)C1=C(C)Nc2ccnc(OC)c2C1c1cccc([N+](=O)[O-])c1 (racemic) [Example 2b, ethyl (±)-1,4-dihydro-5-methoxy-2-methyl-4-(3-nitrophenyl)-1,6-naphthyridine-3-carboxylate] | 12 | 600 | – | 1.8 | – |
| COc1ccc([C@@H]2Sc3ccccc3N(CCN(C)C)C(=O)[C@@H]2OC(C)=O)cc1 [diltiazem, reference compound] | 170 | 2900 | 10000 | 120 | – |
| COC(=O)C1=C(C)NC(C)=C(C(=O)OC)C1c1ccccc1[N+](=O)[O-] [nifedipine, reference compound] | 5 | 59 | – | 2.7 | IC50 ([2]; read-out: IC50 /100 (IC = inhibition concentration, IC100 corresponds to maximum action)): 1000 nM; Δ% = maximum decrease of the contractility [2]: -80% |
| methyl (±)-4-(2-bromoethyl)-1,4-dihydro-5-isopropoxy-2-methyl-1,6-naphthyridine-3-carboxylate [Example 1a] | – | – | – | – | IC50 (arteria coronaria): 2.7 nM; IC50 (arteria saphena): 8 nM; Δ% = maximum decrease of the contractility ([1]; at IC100, papillary muscle of guinea pig, 250/min, 10 msec, 10-20 V field stimulation): -48%; IC50 ([1]; papillary muscle of guinea pig, 250/min, 10 msec, 10-20 V field stimulation): 300000 nM; IC50 (arteria basilaris): 2.4 nM |
